# From US20240365784A1, “AZOLE COMPOUNDS FOR CONTROLLING INVERTEBRATE PESTS” (FMC Corporation, priority 2021, published 2024)
# Tested on: cotton melon aphid (Aphis gossypii (Glover))
# Test: whole plant or invertebrate
# Assay type: in vivo
# Conditions: 144 h, sprayed at 50 ppm, okra plant, assessed after 6 days
# Protocol: (§1) Test compounds were formulated using a solution containing 10% acetone, 90% water and 300 ppm Activator 90® non-ionic surfactant (Loveland Products, Loveland, Colorado, USA). The formulated compounds were applied in 1 mL of liquid through an atomizer nozzle positioned 1.27 cm (0.5 inches) above the top of each test unit. Test compounds were sprayed at the rates indicated, and each test was replicated three times.
# For evaluating control of cotton melon aphid (Aphis gossypii (Glover)) through contact and/or systemic means, the test unit consisted of a small open container with a 5-day-old okra plant inside. This was pre-infested with 30-40 insects on a piece of leaf according to the cut-leaf method, and the soil of the test unit was covered with a layer of sand.
# […] After spraying, the test units were maintained in a growth chamber for 6 days at 19° C. and 70% relative humidity. Each test unit was then visually assessed for insect mortality.
row,SMILES,mortality at 50 ppm [%]
1,Fc1cncc(-c2nccs2)c1Cc1ccc(OC(F)(F)F)cc1 [Compound 40],≥ 80
2,FC(F)(F)Oc1ccc(Cc2ccncc2-n2nccn2)cc1 [Compound 16],≥ 80
3,Fc1cc(Cc2c(F)cncc2-n2nccn2)ccc1C(F)(F)F [Compound 73],≥ 80
4,CC(c1ccc(SC(F)(F)F)cc1)c1c(F)cncc1-n1cccn1 (centres unmarked) [Compound 50],≥ 80
5,CCC(c1ccc(OC(F)(F)F)cc1)c1c(F)cncc1-n1nccn1 (centres unmarked) [Compound 60],≥ 80
6,[O-][S+](c1ccc(Cc2c(F)cncc2-n2nccn2)cc1)C(F)(F)F (centres unmarked) [Compound 18],≥ 80
7,FC(F)(F)Oc1ccc(Cc2c(Cl)cncc2-n2nccn2)cc1 [Compound 12],≥ 80
8,FC(F)(F)Oc1ccc(Cc2c(Br)cncc2-n2nccn2)cc1 [Compound 15],≥ 80
9,CC(c1ccc(OC(F)(F)F)cc1)c1c(F)cncc1-c1nccs1 (centres unmarked) [Compound 63],≥ 80
10,FC(F)(F)Sc1ccc(Cc2ccncc2-n2nccn2)cc1 [Compound 23],≥ 80
11,CC(c1ccc(SC(F)(F)F)cc1)c1c(Cl)cncc1-n1cncn1 (centres unmarked) [Compound 51],≥ 80
12,[O-][S+](c1ccc(Cc2c(Cl)cncc2-n2nccn2)cc1)C(F)(F)F (centres unmarked) [Compound 22],≥ 80
13,Fc1cc(Cc2c(F)cncc2-n2nccn2)ccc1OC(F)(F)F [Compound 66],≥ 80
14,FC(F)(F)Oc1ccc(Cc2c(Cl)cncc2-n2nccn2)cc1Cl [Compound 71],≥ 80

# Same assay, conditions: 144 h, tested at 10 ppm, okra plant, assessed after 6 days
row,SMILES,mortality at 10 ppm [%]
1,Fc1cncc(-c2nccs2)c1Cc1ccc(OC(F)(F)F)cc1 [Compound 40],≥ 80
2,FC(F)(F)Oc1ccc(Cc2ccncc2-n2nccn2)cc1 [Compound 16],≥ 80
3,Fc1cc(Cc2c(F)cncc2-n2nccn2)ccc1C(F)(F)F [Compound 73],≥ 80
4,CC(c1ccc(OC(F)(F)F)cc1)c1c(F)cncc1-c1nccs1 (centres unmarked) [Compound 63],≥ 80
5,Fc1cc(Cc2c(F)cncc2-n2nccn2)ccc1OC(F)(F)F [Compound 66],≥ 80

# Tested on: green peach aphid (Myzus persicae (Sulzer))
# Test: whole plant or invertebrate
# Assay type: in vivo
# Conditions: 144 h, sprayed at 50 ppm, radish plant, assessed after 6 days
# Protocol: as §1
# For evaluating control of green peach aphid (Myzus persicae (Sulzer)) through contact and/or systemic means, the test unit consisted of a small open container with a 12-15-day-old radish plant inside. This was pre-infested by placing on a leaf of the test plant 30-40 aphids on a piece of leaf excised from a culture plant (cut-leaf method). The aphids moved onto the test plant as the leaf piece desiccated. After pre-infestation, the soil of the test unit was covered with a layer of sand.
# Test compounds were formulated and sprayed at 250 and/or 50 ppm. After spraying of the formulated test compound, each test unit was allowed to dry for 1 hour and then a black, screened cap was placed on top. The test units were held for 6 days in a growth chamber at 19-21° C. and 50-70% relative humidity. Each test unit was then visually assessed for insect mortality.
row,SMILES,mortality at 50 ppm [%]
1,FC(F)(F)Oc1ccc(Cc2c(Cl)cncc2-n2nccn2)cc1Br [Compound 68],≥ 80
2,[O-][S+](c1ccc(Cc2c(F)cncc2-n2nccn2)cc1)C(F)(F)F (centres unmarked) [Compound 18],≥ 80
3,FC(F)(F)Oc1ccc(Cc2c(Cl)cncc2-n2nccn2)cc1 [Compound 12],≥ 80
4,FC(F)(F)Oc1ccc(Cc2c(Br)cncc2-n2nccn2)cc1 [Compound 15],≥ 80
5,CC(c1ccc(OC(F)(F)F)cc1)c1c(F)cncc1-c1nccs1 (centres unmarked) [Compound 63],≥ 80
6,FC(F)(F)Sc1ccc(Cc2ccncc2-n2nccn2)cc1 [Compound 23],≥ 80
7,CC(c1ccc(SC(F)(F)F)cc1)c1c(Cl)cncc1-n1cncn1 (centres unmarked) [Compound 51],≥ 80
8,[O-][S+](c1ccc(Cc2c(Cl)cncc2-n2nccn2)cc1)C(F)(F)F (centres unmarked) [Compound 22],≥ 80
9,FC(F)(F)Oc1ccc(Cc2c(Cl)cncc2-n2nccn2)cc1Cl [Compound 71],≥ 80

# Tested on: sweetpotato whitefly (Bemisia tabaci (Gennadius))
# Test: whole plant or invertebrate
# Assay type: in vivo
# Conditions: 312 h, sprayed at 50 ppm, cotton plant infested with eggs, assessed after 13 days
# Protocol: as §1
# For evaluating control of the sweetpotato whitefly (Bemisia tabaci (Gennadius)) through contact and/or systemic means, the test unit consisted of a small open container with a 12-14-day-old cotton plant inside. Prior to the spray application, both cotyledons were removed from the plant, leaving one true leaf for the assay. Adult whiteflies were allowed to lay eggs on the plant and then were removed from the test unit. Cotton plants infested with at least 15 eggs were submitted to the test for spraying.
# […] After spraying, the test units were allowed to dry for 1 hour. The cylinders were then removed, and the units were taken to a growth chamber and held for 13 days at 28° C. and 50-70% relative humidity. Each test unit was then visually assessed for insect mortality.
row,SMILES,mortality at 50 ppm [%]
1,FC(F)(F)Oc1ccc(Cc2c(Cl)cncc2-n2nccn2)cc1Br [Compound 68],≥ 70
2,Fc1cncc(-c2nccs2)c1Cc1ccc(OC(F)(F)F)cc1 [Compound 40],≥ 70
3,FC(F)(F)Oc1ccc(Cc2ccncc2-n2nccn2)cc1 [Compound 16],≥ 70
4,CCC(c1ccc(OC(F)(F)F)cc1)c1c(F)cncc1-n1nccn1 (centres unmarked) [Compound 60],≥ 70
5,[O-][S+](c1ccc(Cc2c(F)cncc2-n2nccn2)cc1)C(F)(F)F (centres unmarked) [Compound 18],≥ 70
6,FC(F)(F)Oc1ccc(Cc2c(Br)cncc2-n2nccn2)cc1 [Compound 15],≥ 70
7,CC(c1ccc(OC(F)(F)F)cc1)c1c(F)cncc1-c1nccs1 (centres unmarked) [Compound 63],≥ 70
8,FC(F)(F)Sc1ccc(Cc2ccncc2-n2nccn2)cc1 [Compound 23],≥ 70
9,CC(c1ccc(SC(F)(F)F)cc1)c1c(Cl)cncc1-n1cncn1 (centres unmarked) [Compound 51],≥ 70
10,FC(F)(F)Sc1ccc(Cc2c(Cl)cncc2-n2ccnn2)cc1 [Compound 6],≥ 70
11,[O-][S+](c1ccc(Cc2c(Cl)cncc2-n2nccn2)cc1)C(F)(F)F (centres unmarked) [Compound 22],≥ 70
12,Fc1cc(Cc2c(F)cncc2-n2nccn2)ccc1OC(F)(F)F [Compound 66],≥ 70
13,FC(F)(F)Oc1ccc(Cc2c(Cl)cncc2-n2nccn2)cc1Cl [Compound 71],≥ 70

# Same assay, conditions: 312 h, tested at 10 ppm, cotton plant infested with eggs, assessed after 13 days
row,SMILES,mortality at 10 ppm [%]
1,FC(F)(F)Oc1ccc(Cc2c(Cl)cncc2-n2nccn2)cc1Br [Compound 68],≥ 70
2,Fc1cncc(-c2nccs2)c1Cc1ccc(OC(F)(F)F)cc1 [Compound 40],≥ 70
3,CCC(c1ccc(OC(F)(F)F)cc1)c1c(F)cncc1-n1nccn1 (centres unmarked) [Compound 60],≥ 70
4,FC(F)(F)Oc1ccc(Cc2c(Cl)cncc2-n2nccn2)cc1Cl [Compound 71],≥ 70

# Tested on: corn planthopper (Peregrinus maidis (Ashmead))
# Test: whole plant or invertebrate
# Assay type: in vivo
# Conditions: 144 h, sprayed at 10 ppm, corn plant, nymphs, assessed after 6 days
# Protocol: as §1
# For evaluating control of corn planthopper (Peregrinus maidis (Ashmead)) through contact and/or systemic means, the test unit consisted of a small open container with a 3-4-day-old corn (maize) plant inside. White sand was added to the top of the soil prior to application of the test compound.
# Test compounds were formulated and sprayed at 250 and/or 50 ppm and/or 10 ppm. After spraying of the formulated test compound, the test units were allowed to dry for 1 h before they were post-infested with ˜15-20 nymphs (18-to-21-day-old). A black, screened cap was placed on the top of each test unit, and the test units were held for 6 days in a growth chamber at 22-24° C. and 50-70% relative humidity. Each test unit was then visually assessed for insect mortality.
row,SMILES,mortality at 10 ppm [%]
1,FC(F)(F)Oc1ccc(Cc2c(Cl)cncc2-n2nccn2)cc1Br [Compound 68],≥ 80
2,Fc1cncc(-c2nccs2)c1Cc1ccc(OC(F)(F)F)cc1 [Compound 40],≥ 80
3,Fc1cc(Cc2c(F)cncc2-n2nccn2)ccc1C(F)(F)F [Compound 73],≥ 80
4,FC(F)(F)Oc1ccc(Cc2c(Cl)cncc2-n2nccn2)cc1 [Compound 12],≥ 80
5,CC(c1ccc(OC(F)(F)F)cc1)c1c(F)cncc1-c1nccs1 (centres unmarked) [Compound 63],≥ 80
6,FC(F)(F)Sc1ccc(Cc2ccncc2-n2nccn2)cc1 [Compound 23],≥ 80
7,Fc1cc(Cc2c(F)cncc2-n2nccn2)ccc1OC(F)(F)F [Compound 66],≥ 80
8,FC(F)(F)Oc1ccc(Cc2c(Cl)cncc2-n2nccn2)cc1Cl [Compound 71],≥ 80

# Same assay, conditions: 144 h, sprayed at 50 ppm, corn plant, nymphs, assessed after 6 days
row,SMILES,mortality at 50 ppm [%]
1,FC(F)(F)Sc1ccc(Cc2c(Cl)cncc2-c2ncco2)cc1 [Compound 37],≥ 80
2,FC(F)(F)Oc1ccc(Cc2c(Cl)cncc2-n2nccn2)cc1Br [Compound 68],≥ 80
3,Fc1cncc(-c2nccs2)c1Cc1ccc(OC(F)(F)F)cc1 [Compound 40],≥ 80
4,FC(F)(F)Oc1ccc(Cc2ccncc2-n2nccn2)cc1 [Compound 16],≥ 80
5,Fc1cc(Cc2c(F)cncc2-n2nccn2)ccc1C(F)(F)F [Compound 73],≥ 80
6,CC(c1ccc(SC(F)(F)F)cc1)c1c(F)cncc1-n1cccn1 (centres unmarked) [Compound 50],≥ 80
7,CCC(c1ccc(OC(F)(F)F)cc1)c1c(F)cncc1-n1nccn1 (centres unmarked) [Compound 60],≥ 80
8,[O-][S+](c1ccc(Cc2c(F)cncc2-n2nccn2)cc1)C(F)(F)F (centres unmarked) [Compound 18],≥ 80
9,FC(F)(F)Oc1ccc(Cc2c(Cl)cncc2-n2nccn2)cc1 [Compound 12],≥ 80
10,CC(c1ccc(OC(F)(F)F)cc1)c1c(F)cncc1-c1nccs1 (centres unmarked) [Compound 63],≥ 80
11,FC(F)(F)Sc1ccc(Cc2ccncc2-n2nccn2)cc1 [Compound 23],≥ 80
12,CC(c1ccc(SC(F)(F)F)cc1)c1c(Cl)cncc1-n1cncn1 (centres unmarked) [Compound 51],≥ 80
13,FC(F)(F)Sc1ccc(Cc2c(Cl)cncc2-n2ccnn2)cc1 [Compound 6],≥ 80
14,Fc1cc(Cc2c(F)cncc2-n2nccn2)ccc1OC(F)(F)F [Compound 66],≥ 80
15,FC(F)(F)Oc1ccc(Cc2c(Cl)cncc2-n2nccn2)cc1Cl [Compound 71],≥ 80
